In patent US8697403B2, “Process and microorganisms for production of lipids from lignocellulosic wastes or residues” (Neste Oil Oyj, priority 2010, dated 2014):

Test system: strain G009
Experiment: Lipase inhibition test: prevention of TAG degradation in cultivation of strain G009
Type: cell-based, Streptomyces albus
Conditions: G009, waste medium
Experimental: Also g/l values of TAGs were estimated by image analysis using Image J program. The standard curve was prepared using concentration scale from 1 g/l up to 40 g/l and the titre of lipids in the culture broth was measured against the standard curve. The whole culture broth (solid stage cultivations) or separated mycelia was extracted with an equal volume of chloroform-methanol (Clf-MeOH; 2:1). Tubes were incubated in a shaker at RT for 1 hour. After centrifugation sample was taken from the extract and analysed by TLC and/or by GC. Dry extract weight was determined by drying 1-5 ml of extract at RT for one day in air blow after which mass was determined by weighing. The mass was given as grams per 1 liter of the culture broth. The spores of the strain […] were cultivated in the medium containing the following raw materials in 1 L of tap water, pH 7: Dextrose 75 20 g, Bagasse 20 g, Biowaste from bakery and garden (1:1) 5 or 10 g, Algae 25 to 50 g, MgSO4.7 H2O 1 g, KH2PO4 1 g and CaCO3 3 g. The cultivation conditions were 28° C., 300 rpm for 11 days. After 6 days of cultivations, 0.05 g/l AgNO3 or 0.4% of TritonX100 solution containing 0.05 g/l of CaCO3. The flasks without the said supplements were considered as controls for lipase inhibition treatment study. Cultivation was continued in the same conditions for 5 days more. The samples were taken after 7, 8 and 11 days of cultivations according to the general sampling protocols used in this invention and the results of sampling are shown here. The parallel cultivations were done with two concentrations of both algae debris and biowaste and the upper row of each test condition gave a result with higher concentration of both waste fractions.

[1] = supplement added after 6 days, sample 11 day

`O=[N+]([O-])[O-].[Ag+]` [AgNO3] was tested, and the “Weight of Chloroform extract (g/l), 7 day” value (28° C., 300 rpm, supplement added after 6 days (0.05 g/l AgNO3 or 0.4% TritonX100 solution containing 0.05 g/l CaCO3), sample 7 day) was 7.7 g/L, the “Quantity of TAGs g/l by Image J, 7 day” value (supplement added after 6 days, sample 7 day) was 4.8 g/L and the “Quantity of TAGs g/l by Image J, 8 day” value (supplement added after 6 days, sample 8 day) was 4.8 g/L. The “Quantity of TAGs g/l by Image J, 11 day” value [1] was 4.8 g/L and the “Weight of Chloroform extract (g/l), 11 day” value [1] was 8.5 g/L.
